Measurements: ChEMBL document CHEMBL4190214, “Identification of BMI1 Promoter Inhibitors from Beaumontia murtonii and Eugenia operculata” (J Nat Prod, 2017)

Experiments:
[1] = Inhibition of BMI1 promoter (unknown origin) expressed in HEK293T cells after 24 hrs by luciferase reporter gene assay; assay type: cell-based; details: HEK-293T
Huh-7 [2] = test: Inhibition of self-renewal of human HuH7 cells assessed as EpCAM negative fraction at 5 uM after 20 mins by propidium iodide staining-based flow cytometric analysis (reference value: 8.8 %); assay type: functional; design: scale not given: the % may be the effect or the level left
Huh-7 [3] = test: Inhibition of self-renewal of human HuH7 cells assessed as EpCAM negative fraction at 0.5 uM after 20 mins by propidium iodide staining-based flow cytometric analysis (reference value: 8.8 %); assay type: functional; design: scale not given: the % may be the effect or the level left
Huh-7 [4] = test: Inhibition of self-renewal of human HuH7 cells assessed as EpCAM positive fraction at 5 uM after 20 mins by propidium iodide staining-based flow cytometric analysis (reference value: 91.2 %); assay type: functional; design: scale not given: the % may be the effect or the level left
Huh-7 [5] = test: Inhibition of self-renewal capacity of human EpCAM-positive HuH7 cells assessed as reduction in sphere formation after 6 days; assay type: functional, cell-based
Homo sapiens = species on record: Homo sapiens; test: Inhibition of BMI1 promoter in human HCT116 cells assessed as decrease in BMI1 protein expression levels after 24 hrs by Western blot analysis; assay type: cell-based
DU-145 = test: Cytotoxicity against human DU145 cells after 24 hrs by fluorescein diacetate staining-based fluorescence assay; assay type: functional, cell-based; details: DU-145, 24 h
Huh-7 [6] = test: Inhibition of self-renewal of human HuH7 cells assessed as EpCAM positive fraction at 0.5 uM after 20 mins by propidium iodide staining-based flow cytometric analysis (reference value: 91.2 %); assay type: functional; design: scale not given: the % may be the effect or the level left
HEK293 = test: Cytotoxicity against HEK293 cells after 24 hrs by fluorescein diacetate staining-based fluorescence assay; assay type: cell-based; details: Homo sapiens, HEK293, 24 h
HCT-116 = test: Cytotoxicity against human HCT116 cells after 24 hrs by fluorescein diacetate staining-based fluorescence assay; assay type: functional, cell-based; details: HCT-116, 24 h
Huh-7 [7] = test: Inhibition of self-renewal of human HuH7 cells assessed as reduction in EpCAM positive fraction at 50 uM after 20 mins by propidium iodide staining-based flow cytometric analysis; assay type: functional; details: Huh-7, 20 min

## CO[C@H]1C[C@H](O[C@H]2CC[C@@]3(C)[C@H](CC[C@@H]4[C@@H]3CC[C@]3(C)[C@@H](C5=CC(=O)OC5)CC[C@]43O)C2)O[C@H](C)[C@H]1O
[1]
  IC50: 0.098 µM

## C[C@]12CC[C@H](O)C[C@H]1CC[C@@H]1[C@@H]2CC[C@]2(C)[C@@H](C3=CC(=O)OC3)CC[C@]12O [DIGITOXIGENIN]
[1]
  IC50: 1.7 µM

## C=C(C)[C@@H]1CC[C@]2(C(=O)OC)CC[C@]3(C(=O)O)[C@H](CC[C@@H]4[C@@]5(C)CC[C@H](O)C(C)(C)[C@@H]5CC[C@]43C)[C@@H]12
[1]
  IC50: 19.5 µM

## CC1(C)CC[C@]2(C(=O)O)CC[C@]3(C)C(=CC[C@@H]4[C@@]5(C)C[C@@H](O)[C@H](O)C(C)(C)[C@@H]5CC[C@]43C)[C@@H]2C1 [MASLINIC ACID]
[1]
  IC50: 22.7 µM

## CO[C@H]1C[C@@H](O[C@H]2CC[C@@]3(C)[C@H](CC[C@@H]4[C@@H]3CC[C@]3(C)[C@@H](C5=CC(=O)OC5)CC[C@]43O)C2)O[C@@H](C)[C@@H]1O
[1]
  IC50: 0.45 µM

## CO[C@@H]1C[C@H](O[C@H]2CC[C@@]3(C)[C@H](CC[C@@H]4[C@@H]3CC[C@]3(C)[C@@H](C5=CC(=O)OC5)CC[C@]43O)C2)O[C@@H](C)[C@@H]1O
Huh-7 [2]
  Activity: 27.1%
Huh-7 [3]
  Activity: 19.9%
Huh-7 [4]
  Activity: 72.9%
[1]
  IC50: 0.093 µM
Huh-7 [5]
  inhibition: Dose-dependent effect
Homo sapiens
  inhibition: Dose-dependent effect
DU-145
  IC50: 0.14 µM
Huh-7 [6]
  Activity: 80.1%
HEK293
  IC50: 5 µM
HCT-116
  IC50: 0.058 µM

## O=[N+]([O-])c1ccc(Nc2ccccc2-c2ccccc2)c2nonc12
Huh-7 [7]
  inhibition at 50 µM: 30 to 40%
